Test [1] deals with Botrytis cinerea. Put plainly: Fungicidal activity against Botryotinia fuckeliana assessed as cucumber gray mold disease control at 7.8 ppm treated on upper surface of leaf 24 hr before inoculation at 22 +/- 2 degC measured after 3 days by preventive manner. Type of test: functional.
The test system of test [2] is Pseudoperonospora cubensis. Put plainly: Fungicidal activity against Pseudoperonospora cubensis assessed as cucumber downy mildew disease control at 500 ppm foliar application 24 hr before inoculation onto the abaxial(treated) surface of leaf by preventive manner. Type of test: functional.
Test [3] relates to Pseudoperonospora cubensis. As to the kind of experiment: Fungicidal activity against Pseudoperonospora cubensis assessed as cucumber downy mildew disease control at 7.8 ppm foliar application 24 hr before inoculation onto the adaxial(treated) surface of leaf by preventive manner. It counts as functional.
The subject of test [4] is Pseudoperonospora cubensis. As to the kind of experiment: Fungicidal activity against Pseudoperonospora cubensis assessed as cucumber downy mildew disease control at 31.3 ppm foliar application 24 hr before inoculation onto the adaxial(treated) surface of leaf by preventive manner. It counts as functional.
Test [5] concerns Pseudoperonospora cubensis. As to the kind of experiment: Fungicidal activity against Pseudoperonospora cubensis assessed as cucumber downy mildew disease control at 31.3 ppm foliar application 24 hr after inoculation by curative manner. Type of test: functional.
Test [6] concerns Pseudoperonospora cubensis. Put plainly: Fungicidal activity against Pseudoperonospora cubensis assessed as cucumber downy mildew disease control at 31.3 ppm foliar application 24 hr before inoculation onto the abaxial(treated) surface of leaf by preventive manner. It counts as functional.
Test [7] deals with Pseudoperonospora cubensis. Put plainly: Fungicidal activity against Pseudoperonospora cubensis assessed as cucumber downy mildew disease control at 7.8 ppm foliar application 24 hr after inoculation by curative manner. Type of test: functional.
In test [8] the test system is Pseudoperonospora cubensis. Put plainly: Fungicidal activity against Pseudoperonospora cubensis assessed as cucumber downy mildew disease control at 125 ppm foliar application 24 hr after inoculation by curative manner. It counts as functional.
The test system of test [9] is Pseudoperonospora cubensis. Put plainly: Fungicidal activity against Pseudoperonospora cubensis assessed as cucumber downy mildew disease control at 125 ppm foliar application 24 hr before inoculation onto the adaxial(treated) surface of leaf by preventive manner. It counts as functional.
Test [10] has as its system Pseudoperonospora cubensis. As to the kind of experiment: Fungicidal activity against Pseudoperonospora cubensis assessed as cucumber downy mildew disease control at 2 ppm foliar application 24 hr before inoculation onto the adaxial(treated) surface of leaf by preventive manner. Type of test: functional.
Test [11] relates to Pseudoperonospora cubensis. As to the kind of experiment: Fungicidal activity against Pseudoperonospora cubensis assessed as cucumber downy mildew disease control at 7.8 ppm foliar application 24 hr before inoculation onto the abaxial(treated) surface of leaf by preventive manner. It counts as functional.
Test [12] concerns Pseudoperonospora cubensis. As to the kind of experiment: Fungicidal activity against Pseudoperonospora cubensis assessed as cucumber downy mildew disease control at 2 ppm foliar application 24 hr before inoculation onto the abaxial(treated) surface of leaf by preventive manner. It counts as functional.
Test [13] concerns Pseudoperonospora cubensis. As to the kind of experiment: Fungicidal activity against Pseudoperonospora cubensis assessed as cucumber downy mildew disease control at 125 ppm foliar application 24 hr before inoculation onto the abaxial(treated) surface of leaf by preventive manner. Type of test: functional.
Test [14] has as its system Podosphaera fuliginea. As to the kind of experiment: Fungicidal activity against Podosphaera fuliginea assessed as cucumber powdery mildew disease control at 31.3 ppm treated on upper surface of leaf 24 hr before inoculation at 23 +/- 2 degC measured after 10 days by preventive manner. It counts as functional.
In test [15] the test system is Pseudoperonospora cubensis. As to the kind of experiment: Fungicidal activity against Pseudoperonospora cubensis assessed as cucumber downy mildew disease control at 2 ppm foliar application 24 hr after inoculation by curative manner. Type of test: functional.
Test [16] relates to Pseudoperonospora cubensis. As to the kind of experiment: Fungicidal activity against Pseudoperonospora cubensis assessed as cucumber downy mildew disease control at 500 ppm foliar application 24 hr before inoculation onto the adaxial(treated) surface of leaf by preventive manner. Type of test: functional.
For test [17], the system named is Botrytis cinerea. Put plainly: Fungicidal activity against Botryotinia fuckeliana assessed as cucumber gray mold disease control at 125 ppm treated on upper surface of leaf 24 hr before inoculation at 22 +/- 2 degC measured after 3 days by preventive manner. Type of test: functional.
The test system of test [18] is Podosphaera fuliginea. As to the kind of experiment: Fungicidal activity against Podosphaera fuliginea assessed as cucumber powdery mildew disease control at 500 ppm treated on upper surface of leaf 24 hr before inoculation at 23 +/- 2 degC measured after 10 days by preventive manner. Type of test: functional.
Test [19] relates to Botrytis cinerea. Put plainly: Fungicidal activity against Botryotinia fuckeliana assessed as cucumber gray mold disease control at 500 ppm treated on upper surface of leaf 24 hr before inoculation at 22 +/- 2 degC measured after 3 days by preventive manner. Type of test: functional.
In test [20] the test system is Podosphaera fuliginea. As to the kind of experiment: Fungicidal activity against Podosphaera fuliginea assessed as cucumber powdery mildew disease control at 125 ppm treated on upper surface of leaf 24 hr before inoculation at 23 +/- 2 degC measured after 10 days by preventive manner. Type of test: functional.
For test [21], the system named is Botrytis cinerea. As to the kind of experiment: Fungicidal activity against Botryotinia fuckeliana assessed as cucumber gray mold disease control at 31.3 ppm treated on upper surface of leaf 24 hr before inoculation at 22 +/- 2 degC measured after 3 days by preventive manner. It counts as functional.
The subject of test [22] is Podosphaera fuliginea. Put plainly: Fungicidal activity against Podosphaera fuliginea assessed as cucumber powdery mildew disease control at 7.8 ppm treated on upper surface of leaf 24 hr before inoculation at 23 +/- 2 degC measured after 10 days by preventive manner. Type of test: functional.
Test [23] has as its system Pseudoperonospora cubensis. Put plainly: Fungicidal activity against Pseudoperonospora cubensis assessed as cucumber downy mildew disease control in field at 100 ppm measured after 9 days of last application. Type of test: functional.
The subject of test [24] is Pseudoperonospora cubensis. As to the kind of experiment: Fungicidal activity against Pseudoperonospora cubensis assessed as cucumber downy mildew disease control in field at 25 ppm measured after 9 days of last application. Type of test: functional.
The next test concerns Phytophthora infestans. Put plainly: Fungicidal activity against Phytophthora infestans assessed as potato late blight disease suppression in field at 100 ppm following 4 applications at 1 week intervals. It counts as functional, organism-based.
Test [25] relates to Pseudoperonospora cubensis. As to the kind of experiment: Fungicidal activity against Pseudoperonospora cubensis assessed as cucumber downy mildew disease control in field at 400 ppm measured after 9 days of last application. It counts as functional.

Calls of active or inactive are those of the source. The calls are words filed in the database; no cut-off is given here.

As for `CNC(=O)C(OC)c1ccccc1CO/N=C(\C)c1ccc(OC)cc1` (racemic), the Activity in the test on Botrytis cinerea [1] was determined as 50%; in test [2] it was 90%; in [3] it was 0%; in [4] it was 100%; in [5], 20%; in [6], 0%. In addition, the Activity in [7] came to 0%; in test [8], 75%; in test [9], 100%; in [10] it was 0%; in test [11], 0%; in [12], 0%. In addition, the Activity in test [13] was 50%; with Podosphaera fuliginea [14], 90%; in test [15], 0%; in [16], 100%.
Consider `CNC(=O)C(OC)c1ccccc1CO/N=C(/SC)c1ccc(OC)cc1` (racemic), for which the Activity came out at 90% in test [2]; 99% in test [3]; 100% in [4]; 65% in test [5]; 40% in test [6]; 50% with Botrytis cinerea [17]. In addition, the Activity in test [7] was 25%; in test [8] it was 95%; in test [9], 100%; in test [10], 90%; in test [11], 25%; in test [12], 25%. The Activity in test [13] is on record as 64%; in [15], 25%; in test [16] it was 96%; with Podosphaera fuliginea [18] it was less than 90%.
For the compound `CNC(=O)C(OC)c1ccccc1COc1ccccc1` (racemic), the Activity in test [2] was less than 90%; in the test with Botrytis cinerea [19], less than 50%; with Podosphaera fuliginea [20], 90%; in [16], less than 90%.
In the case of `CNC(=O)C(OC)c1ccccc1CO/N=C(\C)c1ccc([N+](=O)[O-])cc1` (racemic), the Activity is less than 90% in test [2], 50% in the test with Botrytis cinerea [17], 90% in test [16] and 90% with Podosphaera fuliginea [18].
Consider `CNC(=O)C(OC)c1ccccc1CO/N=C(\C)c1ccccc1` (racemic), for which the Activity in test [2] is on record as less than 90%; in the test with Botrytis cinerea [21], 50%; with Podosphaera fuliginea [14], 90%; in [16], less than 90%.
As for `CNC(=O)C(OC)c1ccccc1CO/N=C(\C)c1ccc(C)cc1C` (racemic), the Activity in [2] turned out to be 90%; in [9], 90%; in the test on Botrytis cinerea [21], 50%; in the test with Podosphaera fuliginea [14], 90%.
For `CNC(=O)C(OC)c1ccccc1CO/N=C(\C)c1ccc(OC(F)F)cc1` (racemic), the Activity in the test on Botrytis cinerea [1] is given as 50%; in test [2] it was 97%; in [3], 97%; in test [4], 97%; in test [5], 75%; in test [6], 90%. The Activity in the test with Podosphaera fuliginea [22] is given as 90%; in test [23], 52.6%; in test [7], 70%; in test [8], 75%; in test [9], 97%; in test [10], 97%. For the same compound, the Activity was 65% in test [11]; 30% in test [12]; 95% in test [13]; 25% in [15]; 97% in test [16].
For the compound `CCC/C(=N\OCc1ccccc1C(OC)C(=O)NC)c1ccc(Cl)cc1` (racemic), the Activity was 90% in [3], 90% in test [6], 90% with Podosphaera fuliginea [22] and 50% in the test on Botrytis cinerea [17].
On to `CNC(=O)C(OC)c1ccccc1CO/N=C(/SC)c1ccc(C(F)(F)F)cc1` (racemic), for which the Activity is 100% in [2]; 100% in test [3]; 100% in [4]; 95% in [5]; 99% in test [6]; 90% in the test with Podosphaera fuliginea [22]. Further, the Activity in test [23] stood at 96.1%; in the test with Botrytis cinerea [17], 50%; in [7], 79%; in test [8], 95%; in test [9], 100%; in test [10] it was 100%. Moreover, the Activity in test [24] was 62.3%; in test [11], 192%; in test [12] it was 25%; in [13], 97%; in test [15], 50%; in test [16] it was 100%. Further, the inhibition result with Phytophthora infestans was “Active”.
With `CNC(=O)C(OC)c1ccccc1CO/N=C(/SC)c1ccc(OC(F)F)cc1` (racemic), the Activity came to 100% in test [2]; 100% in [3]; 100% in test [4]; 65% in [5]; 80% in test [6]; 81.6% in [23]. Besides, the Activity in test [7] amounted to 40%; in test [8], 78%; in test [9], 100%; in [10], 100%; in test [24] it was 71.4%; in test [11], 80%. Also, the Activity with Botrytis cinerea [21] was 50%; in test [12], 60%; in test [13] it was 100%; in the test on Podosphaera fuliginea [14], 90%; in test [15] it was 30%; in [16], 100%.
On to `N#Cc1c(Cl)c(Cl)c(Cl)c(C#N)c1Cl` [CHLOROTHALONIL], for which, in test [25], the Activity worked out at 55.3%.
In the case of `CNC(=O)C(OC)c1ccccc1CO/N=C(/SC)c1ccc(Cl)cc1` (racemic), the Activity turned out to be 97% in test [2]; 100% in test [3]; 100% in test [4]; 60% in test [5]; 50% in [6]; 50% in the test on Botrytis cinerea [19]. Moreover, the Activity in [7] was found to be 35%; in [8], 87%; in test [9] it was 100%; in test [10] it was 100%; in test [11] it was 40%; in test [12], 20%. Besides, the Activity in test [13] is given as 64%; in the test on Podosphaera fuliginea [14], 90%; in test [15] it was 10%; in [16], 100%.
